Ten compounds from ChEMBL document CHEMBL1201862, “PubChem BioAssay data set” (2004) can be followed below.

SMILES strings stand for the structures. The source made the active and inactive calls. Bounds are passed on as bounds.

Test [1] deals with T1, Short transient receptor potential channel 4 (Mus musculus, UniProt Q9QUQ5).
T1 sequence (Q9QUQ5 whole entry): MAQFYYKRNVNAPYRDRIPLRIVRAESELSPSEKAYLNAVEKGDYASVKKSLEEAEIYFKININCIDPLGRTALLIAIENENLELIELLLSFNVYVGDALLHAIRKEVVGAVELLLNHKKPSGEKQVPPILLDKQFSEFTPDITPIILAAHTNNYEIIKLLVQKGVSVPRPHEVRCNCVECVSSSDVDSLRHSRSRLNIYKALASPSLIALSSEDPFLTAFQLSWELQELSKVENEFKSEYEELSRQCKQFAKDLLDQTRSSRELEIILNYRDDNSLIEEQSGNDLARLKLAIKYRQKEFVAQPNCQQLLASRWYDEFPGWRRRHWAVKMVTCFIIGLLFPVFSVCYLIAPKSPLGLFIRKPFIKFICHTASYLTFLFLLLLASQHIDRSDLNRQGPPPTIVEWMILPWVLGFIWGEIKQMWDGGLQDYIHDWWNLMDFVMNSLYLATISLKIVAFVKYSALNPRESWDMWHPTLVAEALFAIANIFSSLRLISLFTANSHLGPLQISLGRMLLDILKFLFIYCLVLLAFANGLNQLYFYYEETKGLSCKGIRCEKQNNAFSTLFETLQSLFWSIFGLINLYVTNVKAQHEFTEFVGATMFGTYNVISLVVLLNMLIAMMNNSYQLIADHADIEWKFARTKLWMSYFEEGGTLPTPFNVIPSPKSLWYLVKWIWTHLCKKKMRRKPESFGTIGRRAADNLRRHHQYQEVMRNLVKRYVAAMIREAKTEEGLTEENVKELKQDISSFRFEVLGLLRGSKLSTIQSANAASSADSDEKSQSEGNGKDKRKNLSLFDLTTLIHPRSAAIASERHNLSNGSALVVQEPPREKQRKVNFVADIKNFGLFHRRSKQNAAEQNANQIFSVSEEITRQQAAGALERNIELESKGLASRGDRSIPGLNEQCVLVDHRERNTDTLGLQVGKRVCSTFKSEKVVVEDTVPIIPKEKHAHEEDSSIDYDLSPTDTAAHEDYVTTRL
Briefly: mouse TRPC4 channel inhibitors, dose response, cell-based, HEK293 TRPC4/mu-opioid, Fluo-4 calcium (AID 434942).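 Note: potency of inhibitors blocking the TRPC4 calcium response.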 Format: functional.

Test [2] concerns the target Trypsin (Sus scrofa, UniProt P00761). Briefly: porcine trypsin inhibitors, dose response, selectivity assay for Rce1 protease inhibitor project, biochemical, quenched peptide fluorescence, cherry-pick (AID 488789).
For test [3], the target named is T2, Streptokinase A (Streptococcus pyogenes serotype M1, UniProt P10520).
T2 sequence (P10520 whole entry): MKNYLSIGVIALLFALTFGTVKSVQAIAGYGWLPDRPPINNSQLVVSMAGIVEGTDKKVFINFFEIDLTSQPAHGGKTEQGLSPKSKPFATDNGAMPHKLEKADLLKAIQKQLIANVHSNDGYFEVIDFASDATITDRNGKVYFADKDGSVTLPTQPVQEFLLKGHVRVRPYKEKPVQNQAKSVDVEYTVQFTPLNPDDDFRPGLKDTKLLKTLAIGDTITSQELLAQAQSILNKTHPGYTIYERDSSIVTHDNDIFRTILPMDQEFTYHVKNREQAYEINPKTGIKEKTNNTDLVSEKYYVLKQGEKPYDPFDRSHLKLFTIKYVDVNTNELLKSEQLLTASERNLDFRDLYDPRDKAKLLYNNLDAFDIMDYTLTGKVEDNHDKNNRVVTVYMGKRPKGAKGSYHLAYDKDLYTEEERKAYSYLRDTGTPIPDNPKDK
Briefly: S. pyogenes streptokinase expression inhibitors, potency, dose response, plasminogen activation absorbance, OD405 (AID 1914).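 Note: secreted streptokinase activity via plasminogen activation per viability signal from cell pellet.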 The class given is functional, Streptococcus pyogenes M1 GAS.

Test [4] can be described thus: cells. The class given is functional, cell-based.
The nature of test [5]: cells. Format: functional, cell-based. This is another data set of the same source.
A short description of test [6]: THP-1 cell cytotoxicity, dose response, cytotoxicity control for non-replicating M. tuberculosis project (AID 489025). Format: functional.
Test [7] addresses FAD-linked sulfhydryl oxidase ALR (Homo sapiens, UniProt P55789). Put plainly: inhibitors of human ALR sulfhydryl oxidase, dose response, biochemical, H2O2 detection, luminescence, cherry-pick (AID 493248).

Chain of Trypsin (P00761 whole entry): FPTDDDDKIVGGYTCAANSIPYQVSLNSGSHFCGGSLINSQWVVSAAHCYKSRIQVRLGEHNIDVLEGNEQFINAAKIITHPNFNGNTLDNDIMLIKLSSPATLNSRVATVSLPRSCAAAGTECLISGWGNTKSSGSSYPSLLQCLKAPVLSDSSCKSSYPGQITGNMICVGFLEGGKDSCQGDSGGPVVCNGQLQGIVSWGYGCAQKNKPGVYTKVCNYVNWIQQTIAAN
Chain of FAD-linked sulfhydryl oxidase ALR (P55789 whole entry): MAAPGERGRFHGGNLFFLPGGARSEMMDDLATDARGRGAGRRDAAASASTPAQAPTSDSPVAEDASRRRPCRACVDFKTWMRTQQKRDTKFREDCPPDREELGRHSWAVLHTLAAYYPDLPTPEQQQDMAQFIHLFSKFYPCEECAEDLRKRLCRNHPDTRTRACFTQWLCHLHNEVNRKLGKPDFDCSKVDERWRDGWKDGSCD

Consider `CCc1c(C(=O)N2CCCN(C)CC2)csc1C`, for which the EC50 (as a rule, the midpoint of the concentration-response curve) in test [1] is 5.96 µM (active).
For the compound `COc1ccccc1N1CCN(C(=O)c2coc(=O)c(Br)c2)CC1`, the AC50 (commonly the midpoint of the concentration-response curve, whichever way the signal moves) in test [2] was 9.18 µM (active).
With `C=CCc1ccccc1OCC(CN1CCCCC1)OC(C)=O` (stereo not drawn), the EC50 in test [1] was 5.31 µM (active).
As for `COc1cccc(C2CC(c3cccs3)=NN2C(=O)CSc2nc3c(cnn3-c3ccc(F)cc3)c(=O)[nH]2)c1OC` (stereo not drawn), the concentration giving a half-maximal response (EC50) in test [3] is > 50 µM (not active). Moreover, the AC50 in test [2] was 3.95 µM (active).
For `Cc1ccc(N=C(S)N(CCCN(C)C)Cc2cc3cc4c(cc3nc2O)OCO4)c(C)c1`, the concentration giving a half-maximal response (EC50) in test [1] is 3.35 µM (active).
`CCOc1nc(Nc2ccc(OC)cc2)nc(OCC)n1`: the EC50 in test [4] and in test [5] was > 350 µM (not active) throughout.
Consider `CN(Cc1ccccc1)C(=O)CSc1nnc(-c2ccco2)n1-c1ccccc1`, for which the 50% effective concentration (EC50) in test [1] was 1.68 µM (active).
Take `Cn1c(-c2cccc([N+](=O)[O-])c2)cnc1NCc1cccc(F)c1`: the CC50 (usually the concentration at which the toxic effect on the cells reaches its halfway point) in test [6] is > 40 µM (active). In addition, the AC50 in test [7] was 1.92 µM (active).
For the compound `COc1ccc(CN(C)C(=O)c2ccc(NC(=O)CC3SC(N4CCCC4)=NC3=O)cc2)c(OC)c1` (stereo not drawn), in test [1], the EC50 is 2.37 µM (active).
As to `CC(C)(C)CC(C)(C)NCC(O)COc1ccc2c(c1)CCC2` (stereo not drawn), the EC50 in test [1] is 3.35 µM (active).
